Target: recombinant human SAE enzyme (Homo sapiens (Human), UniProt Q9UBT2)
Assay: SAE HTRF enzyme assay
Assay type: biochemical
Conditions: for Percent Inhibition: Concentration 0.111 μM; for IC50: class symbols A/B/C
Summary of the method: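 Sumoylation of Ubc9-GST by SAE was followed at low ATP (0.5 μM), pH 7.5, 24° C. for 105 min. Product was detected by HTRF with antibody pairs against Flag and GST tags.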

recombinant human SAE enzyme, sequence (Q9UBT2 whole entry): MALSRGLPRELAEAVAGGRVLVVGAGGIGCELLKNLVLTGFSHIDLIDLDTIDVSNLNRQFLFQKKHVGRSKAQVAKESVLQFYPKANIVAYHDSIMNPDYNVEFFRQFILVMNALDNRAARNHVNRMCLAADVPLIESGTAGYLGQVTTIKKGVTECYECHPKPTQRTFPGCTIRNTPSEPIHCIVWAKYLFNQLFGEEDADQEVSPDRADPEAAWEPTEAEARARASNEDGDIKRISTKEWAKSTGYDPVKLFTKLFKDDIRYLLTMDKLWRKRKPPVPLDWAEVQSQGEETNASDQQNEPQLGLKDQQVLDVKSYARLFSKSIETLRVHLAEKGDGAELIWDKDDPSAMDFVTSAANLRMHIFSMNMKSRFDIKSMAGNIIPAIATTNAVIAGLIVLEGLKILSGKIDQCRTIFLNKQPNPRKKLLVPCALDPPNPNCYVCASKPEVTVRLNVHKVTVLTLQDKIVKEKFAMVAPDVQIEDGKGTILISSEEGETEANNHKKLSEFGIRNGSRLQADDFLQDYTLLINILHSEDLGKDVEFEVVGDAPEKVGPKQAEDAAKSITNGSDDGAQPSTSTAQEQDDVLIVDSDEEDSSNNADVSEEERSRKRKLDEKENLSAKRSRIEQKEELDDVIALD
recombinant human SAE enzyme, sequence (Q9UBE0 whole entry partner): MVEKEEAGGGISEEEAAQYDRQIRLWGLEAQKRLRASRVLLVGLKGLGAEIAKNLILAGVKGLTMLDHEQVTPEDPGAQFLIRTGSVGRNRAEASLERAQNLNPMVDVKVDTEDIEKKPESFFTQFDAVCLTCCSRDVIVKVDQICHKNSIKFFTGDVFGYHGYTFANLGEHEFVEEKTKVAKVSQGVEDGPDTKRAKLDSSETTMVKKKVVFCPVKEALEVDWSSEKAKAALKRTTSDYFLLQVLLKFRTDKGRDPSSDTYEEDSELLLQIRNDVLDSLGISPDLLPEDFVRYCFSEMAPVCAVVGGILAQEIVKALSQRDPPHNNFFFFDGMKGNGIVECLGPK

SMILES	Percent Inhibition	IC50
NS(=O)(=O)OC[C@H]1C[C@@H](Nc2ncncc2C(=O)c2cc([C@H](O)c3cccc(Cl)c3)co2)C[C@@H]1O (single isomer, unassigned) [I-42a, {(1R,2S,4R)-4-[(5-{4-[(R)-(3-chlorophenyl)(hydroxy)methyl]-2-furoyl}pyrimidin-4-yl)amino]-2-hydroxycyclopentyl}methyl sulfamate or {(1R,2S,4R)-4-[(5-{4-[(S)-(3-chlorophenyl)(hydroxy)methyl]-2-furoyl}pyrimidin-4-yl)amino]-2-hydroxycyclopentyl}methyl sulfamate]	97	< 10 nM
NS(=O)(=O)OC[C@H]1C[C@@H](Nc2ncncc2C(=O)c2cc([C@H](O)c3cccc(Cl)c3)co2)C[C@@H]1O (single isomer, unassigned) [I-42b, {(1R,2S,4R)-4-[(5-{4-[(R)-(3-chlorophenyl)(hydroxy)methyl]-2-furoyl}pyrimidin-4-yl)amino]-2-hydroxycyclopentyl}methyl sulfamate or {(1R,2S,4R)-4-[(5-{4-[(S)-(3-chlorophenyl)(hydroxy)methyl]-2-furoyl}pyrimidin-4-yl)amino]-2-hydroxycyclopentyl}methyl sulfamate]	99	< 10 nM
CN[C@H](c1cccc(Cl)c1)c1csc(C(=O)c2cncnc2N[C@@H]2C[C@H](COS(N)(=O)=O)[C@@H](O)C2)c1 (single isomer, unassigned) [I-47a, [(1R,2S,4R)-4-{[5-({4-[(R)-(3-chlorophenyl)(methylamino)methyl]-2-thienyl}carbonyl)pyrimidin-4-yl]amino}-2-hydroxycyclopentyl]methyl sulfamate or [(1R,2S,4R)-4-{[5-({4-[(S)-(3-chlorophenyl)(methylamino)methyl]-2-thienyl}carbonyl)pyrimidin-4-yl]amino}-2-hydroxycyclopentyl]methyl sulfamate]	99	< 10 nM
CN[C@H](c1cccc(Cl)c1)c1csc(C(=O)c2cncnc2N[C@@H]2C[C@H](COS(N)(=O)=O)[C@@H](O)C2)c1 (single isomer, unassigned) [I-47b, [(1R,2S,4R)-4-{[5-({4-[(R)-(3-chlorophenyl)(methylamino)methyl]-2-thienyl}carbonyl)pyrimidin-4-yl]amino}-2-hydroxycyclopentyl]methyl sulfamate or [(1R,2S,4R)-4-{[5-({4-[(S)-(3-chlorophenyl)(methylamino)methyl]-2-thienyl}carbonyl)pyrimidin-4-yl]amino}-2-hydroxycyclopentyl]methyl sulfamate]	99	< 10 nM
C[C@](O)(c1ccccc1)c1coc(C(=O)c2cncnc2N[C@@H]2C[C@H](COS(N)(=O)=O)[C@@H](O)C2)c1 (single isomer, unassigned) [I-58a, {(1R,2S,4R)-2-hydroxy-4-[(5-{4-[(1S)-1-hydroxy-1-phenylethyl]-2-furoyl}pyrimidin-4-yl)amino]cyclopentyl}methyl sulfamate or {(1R,2S,4R)-2-hydroxy-4-[(5-{4-[(1R)-1-hydroxy-1-phenylethyl]-2-furoyl}pyrimidin-4-yl)amino]cyclopentyl}methyl sulfamate]	87	10 to 100 nM
C[C@](O)(c1ccccc1)c1coc(C(=O)c2cncnc2N[C@@H]2C[C@H](COS(N)(=O)=O)[C@@H](O)C2)c1 (single isomer, unassigned) [I-58b, {(1R,2S,4R)-2-hydroxy-4-[(5-{4-[(1S)-1-hydroxy-1-phenylethyl]-2-furoyl}pyrimidin-4-yl)amino]cyclopentyl}methyl sulfamate or {(1R,2S,4R)-2-hydroxy-4-[(5-{4-[(1R)-1-hydroxy-1-phenylethyl]-2-furoyl}pyrimidin-4-yl)amino]cyclopentyl}methyl sulfamate]	100	< 10 nM
CO[C@@H](c1cccc(Br)c1)c1csc(C(=O)c2cncnc2N[C@@H]2C[C@H](COS(N)(=O)=O)[C@@H](O)C2)c1 (single isomer, unassigned) [I-73a, [(1R,2S,4R)-4-{[({(4-[(S)-(3-Bromophenyl)(methoxy)methyl]-2-thienyl}carbonyl)pyrimidin-4-yl]amino}-2-hydroxycyclopentyl]methyl sulfamate or [(1R,2S,4R)-4-{[5-({4-[(R)-(3-Bromophenyl)(methoxy)methyl]-2-thienyl}carbonyl)pyrimidin-4-yl]amino}-2-hydroxycyclopentyl]methyl sulfamate]	98	< 10 nM
CO[C@@H](c1cccc(Br)c1)c1csc(C(=O)c2cncnc2N[C@@H]2C[C@H](COS(N)(=O)=O)[C@@H](O)C2)c1 (single isomer, unassigned) [I-73b, [(1R,2S,4R)-4-{[5-({4-[(S)-(3-Bromophenyl)(methoxy)methyl-2-thienyl}carbonyl)pyrimidin-4-yl]amino}-2-hydroxycyclopentyl]methyl sulfamate or [(1R,2S,4R)-4-{[5-(4-[(R)-(3-Bromophenyl)(methoxy)methyl]-2-thienyl)carbonyl)pyrimidin-4-yl]amino}-2-hydroxycyclopentyl]methyl sulfamate]	98	< 10 nM
CO[C@H](c1cccc(Cl)c1)c1cc(C(=O)c2cncnc2N[C@@H]2C[C@H](COS(N)(=O)=O)[C@@H](O)C2)sc1Cl (single isomer, unassigned) [I-90a, [(1R,2S,4R)-4-{[5-({5-chloro-4-[(R)-(3-chlorophenyl)(methoxy)methyl]-2-thienyl}carbonyl)pyrimidin-4-yl]amino}-2-hydroxycyclopentyl]methyl sulfamate or [(1R,2S,4R)-4-{[5-({5-chloro-4-[(S)-(3-chlorophenyl)(methoxy)methyl]-2-thienyl}carbonyl)pyrimidin-4-yl]amino}-2-hydroxycyclopentyl]methyl sulfamate]	98	< 10 nM
CO[C@H](c1cccc(Cl)c1)c1cc(C(=O)c2cncnc2N[C@@H]2C[C@H](COS(N)(=O)=O)[C@@H](O)C2)sc1Cl (single isomer, unassigned) [I-90b, [(1R,2S,4R)-4-{[5-({5-chloro-4-[(R)-(3-chlorophenyl)(methoxy)methyl]-2-thienyl}carbonyl)pyrimidin-4-yl]amino}-2-hydroxycyclopentyl]methyl sulfamate or [(1R,2S,4R)-4-{[5-({5-chloro-4-[(S)-(3-chlorophenyl)(methoxy)methyl]-2-thienyl}carbonyl)pyrimidin-4-yl]amino}-2-hydroxycyclopentyl]methyl sulfamate]	92	10 to 100 nM
CC(O)(c1cccc(Cl)c1)c1cc(C(=O)c2cncnc2N[C@@H]2C[C@H](COS(N)(=O)=O)[C@@H](O)C2)sc1Cl (single isomer, unassigned) [I-102a, [(1R,2S,4R)-4-{[5-({5-chloro-4-[(1R)-1-(3-chlorophenyl)-1-hydroxyethyl]-2-thienyl}carbonyl)pyrimidin-4-yl]amino}-2-hydroxycyclopentyl]methyl sulfamate or [(1R,2S,4R)-4-{[5-({5-chloro-4-[(1S)-1-(3-chlorophenyl)-1-hydroxyethyl]-2-thienyl}carbonyl)pyrimidin-4-yl]amino}-2-hydroxycyclopentyl]methyl sulfamate]	36	100 to 1000 nM
CC(O)(c1cccc(Cl)c1)c1cc(C(=O)c2cncnc2N[C@@H]2C[C@H](COS(N)(=O)=O)[C@@H](O)C2)sc1Cl (single isomer, unassigned) [I-102b, [(1R,2S,4R)-4-{[5-({5-chloro-4-[(1R)-1-(3-chlorophenyl)-1-hydroxyethyl]-2-thienyl}carbonyl)pyrimidin-4-yl]amino}-2-hydroxycyclopentyl]methyl sulfamate or [(1R,2S,4R)-4-{[5-({5-chloro-4-[(1S)-1-(3-chlorophenyl)-1-hydroxyethyl]-2-thienyl}carbonyl)pyrimidin-4-yl]amino}-2-hydroxycyclopentyl]methyl sulfamate]	97	< 10 nM
CC(c1cccc(Cl)c1)c1csc(C(=O)c2cncnc2N[C@@H]2C[C@H](COS(N)(=O)=O)[C@@H](O)C2)c1 (single isomer, unassigned) [I-117a, [(1R,2S,4R)-4-{[5-({4-[(1S)-1-(3-chlorophenyl)ethyl]-2-thienyl}carbonyl)pyrimidin-4-yl]amino}-2-hydroxycyclopentyl]methyl sulfamate or [(1R,2S,4R)-4-{[5-({4-[(1R)-1-(3-chlorophenyl)ethyl]-2-thienyl}carbonyl)pyrimidin-4-yl]amino}-2-hydroxycyclopentyl]methyl sulfamate]	73	10 to 100 nM
CC(c1cccc(Cl)c1)c1csc(C(=O)c2cncnc2N[C@@H]2C[C@H](COS(N)(=O)=O)[C@@H](O)C2)c1 (single isomer, unassigned) [I-117b, [(1R,2S,4R)-4-{[5-({4-[(1S)-1-(3-chlorophenyl)ethyl]-2-thienyl}carbonyl)pyrimidin-4-yl]amino}-2-hydroxycyclopentyl]methyl sulfamate or [(1R,2S,4R)-4-{[5-({4-[(1R)-1-(3-chlorophenyl)ethyl]-2-thienyl}carbonyl)pyrimidin-4-yl]amino}-2-hydroxycyclopentyl]methyl sulfamate]	97	< 10 nM
Cc1sc(C(=O)c2cncnc2N[C@@H]2C[C@H](COS(N)(=O)=O)[C@@H](O)C2)cc1[C@H](C)c1cccc(Cl)c1 (single isomer, unassigned) [I-135a, [(1R,2S,4R)-4-{[5-({4-[(1R)-1-(3-chlorophenyl)ethyl]-5-methyl-2-thienyl}carbonyl)pyrimidin-4-yl]amino}-2-hydroxycyclopentyl]methyl sulfamate or [(1R,2S,4R)-4-{[5-({4-[(1S)-1-(3-chlorophenyl)ethyl]-5-methyl-2-thienyl}carbonyl)pyrimidin-4-yl]amino}-2-hydroxycyclopentyl]methyl sulfamate]	82	10 to 100 nM
